The IC50 is the concentration at which inhibition is half-maximal.

Where two headings read alike, the source gives them in different places.

Data on 13 molecules can be found in patent US9255072B2, “Pyrazole compounds and thiazole compounds as protein kinases inhibitors” (National Health Rsearch Institutes, priority 2011, dated 2016).

What all share (type): biochemical
Experiment [1] deals with T1, VEGFR1 (Homo sapiens, UniProt P17948).
T1 construct: GST-VEGFR1 (residues R781-I1338); GST (N); made in house; host or cells: Sf9 insect cells
T1 sequence (P17948 781-1338): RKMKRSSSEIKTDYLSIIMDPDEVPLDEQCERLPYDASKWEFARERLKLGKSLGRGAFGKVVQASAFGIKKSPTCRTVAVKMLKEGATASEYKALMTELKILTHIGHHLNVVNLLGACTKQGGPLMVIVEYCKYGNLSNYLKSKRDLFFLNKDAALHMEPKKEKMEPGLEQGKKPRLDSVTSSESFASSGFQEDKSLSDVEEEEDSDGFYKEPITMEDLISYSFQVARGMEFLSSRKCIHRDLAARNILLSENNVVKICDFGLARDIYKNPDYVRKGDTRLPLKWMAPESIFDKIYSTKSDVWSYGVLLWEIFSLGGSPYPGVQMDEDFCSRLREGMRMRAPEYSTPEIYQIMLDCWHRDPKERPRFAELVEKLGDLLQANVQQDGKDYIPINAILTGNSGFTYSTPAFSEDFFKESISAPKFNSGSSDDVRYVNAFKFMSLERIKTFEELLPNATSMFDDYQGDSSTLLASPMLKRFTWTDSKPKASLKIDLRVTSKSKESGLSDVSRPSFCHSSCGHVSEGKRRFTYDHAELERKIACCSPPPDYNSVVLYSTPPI
Put plainly: VEGFR1 Kinase-Glo kinase assay. The settings on record: 1 μM ATP. The protocol:
(§1) The recombinant GST-VEGFR1 (residues R781-I1338) or GST-VEGFR2 (residues V789-V1356) containing kinase domain were expressed in Sf9 insect cells. The kinase assay were carried out in 96-well plates with tested compound in a final volume of 50 μl reaction at 30° C. for 120 minutes with following components: 25 mM HEPES pH 7.4, 10 mM MgCl2, 4 mM MnCl2, 0.5 mM Na3VO4, 2 mM DTT, 0.02% Triton X100, 0.01% BSA, 1 μM ATP, 2 μM polyGlu4:Tyr peptide, 50˜100 ng recombinant VEGFR1 or VEGFR2. Following incubation, 50 μl Kinase-Glo Plus Reagent (Promega, Madison, Wis., USA) was added to each well and the mixture was incubated at 25° C. for 20 min. A 70-μL aliquot of each reaction mixture was transferred to a black microtiter plate and the luminescence was measured on Wallac Vector 1420 multilabel counter (PerkinElmer, Shelton, Conn., USA).
For orientation: Kinase-Glo measures the ATP left after a reaction by luminescence.

The target of experiment [2] is T2, wt-FLT3 (Homo sapiens, UniProt P36888).
T2 construct: FLT3 kinase catalytic domain (residues Y567˜S993); made in house; host or cells: Sf9 insect cells (baculovirus, pBac-PAK8-GST-FLT3-KD plasmid)
T2 sequence (P36888 567-993): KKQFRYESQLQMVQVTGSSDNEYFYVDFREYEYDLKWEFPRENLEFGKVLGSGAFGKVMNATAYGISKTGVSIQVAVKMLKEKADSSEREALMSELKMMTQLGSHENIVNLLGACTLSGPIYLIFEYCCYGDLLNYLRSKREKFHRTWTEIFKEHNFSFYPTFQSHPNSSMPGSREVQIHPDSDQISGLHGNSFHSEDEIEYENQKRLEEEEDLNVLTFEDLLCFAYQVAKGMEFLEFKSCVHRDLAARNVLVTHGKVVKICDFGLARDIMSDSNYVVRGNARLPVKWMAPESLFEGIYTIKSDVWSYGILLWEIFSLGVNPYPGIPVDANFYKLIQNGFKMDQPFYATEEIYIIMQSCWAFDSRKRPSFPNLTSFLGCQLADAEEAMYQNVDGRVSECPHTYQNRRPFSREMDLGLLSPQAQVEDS
Description: FLT3 WT Kinase-Glo assay. The settings on record: FLT3 WT Kinase-Glo, 1 μM ATP; read-out: IC50. The protocol: GST-FLT3-KD^WT containing the FLT3 kinase catalytic domain (residues Y567˜S993) were expressed in Sf9 insect cells transfected the baculovirus containing pBac-PAK8-GST-FLT3-KD plasmid. […] Following incubation, 50 μl Kinase-Glo Plus Reagent (Promega, Madison, Wis., USA) was added to each well and the mixture was incubated at 25° C. for 20 min. A 70-μL aliquot of each reaction mixture was transferred to a black microtiter plate and the luminescence was measured on Wallac Vector 1420 multilabel counter (PerkinElmer, Shelton, Conn., USA).

In experiment [3] the target is T3, VEGFR2 (Homo sapiens, UniProt P35968).
T3 construct: GST-VEGFR2 (residues V789-V1356); GST (N); made in house; host or cells: Sf9 insect cells
T3 sequence (P35968 789-1356): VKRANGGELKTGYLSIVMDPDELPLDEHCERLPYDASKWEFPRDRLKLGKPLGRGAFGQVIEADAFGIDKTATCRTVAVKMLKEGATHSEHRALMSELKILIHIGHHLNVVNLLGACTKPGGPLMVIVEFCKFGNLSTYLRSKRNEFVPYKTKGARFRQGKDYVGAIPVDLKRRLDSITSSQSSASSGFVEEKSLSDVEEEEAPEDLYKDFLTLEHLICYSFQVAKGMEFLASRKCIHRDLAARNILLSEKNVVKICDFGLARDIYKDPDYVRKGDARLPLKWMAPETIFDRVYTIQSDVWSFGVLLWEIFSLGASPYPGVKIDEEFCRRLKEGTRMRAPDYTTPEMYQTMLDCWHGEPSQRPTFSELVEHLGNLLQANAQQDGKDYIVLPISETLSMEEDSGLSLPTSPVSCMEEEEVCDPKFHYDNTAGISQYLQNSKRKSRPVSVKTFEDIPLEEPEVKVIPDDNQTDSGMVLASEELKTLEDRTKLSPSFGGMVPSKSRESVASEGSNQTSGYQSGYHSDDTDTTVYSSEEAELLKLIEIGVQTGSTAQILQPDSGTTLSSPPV
Put plainly: VEGFR2 Kinase-Glo kinase assay. The settings on record: 1 μM ATP. Here is the method:
as §1

In experiment [4] the target is T4, Aurora A (Homo sapiens, UniProt O14965).
T4 construct: GST-Aurora A (residues S123-S401); GST (N); made in house; host or cells: Sf9 insect cells
T4 sequence (O14965 123-401): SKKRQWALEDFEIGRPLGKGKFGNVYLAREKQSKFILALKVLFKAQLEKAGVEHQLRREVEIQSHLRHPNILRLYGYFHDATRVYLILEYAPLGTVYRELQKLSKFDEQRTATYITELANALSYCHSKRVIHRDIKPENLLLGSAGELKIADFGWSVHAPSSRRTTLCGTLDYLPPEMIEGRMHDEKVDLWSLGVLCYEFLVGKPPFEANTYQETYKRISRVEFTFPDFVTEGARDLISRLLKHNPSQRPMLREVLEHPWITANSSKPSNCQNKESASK
Description: Aurora kinase A Kinase-Glo kinase assay. The note with it: Aurora A assay, 5 μM ATP, read-out: IC50. The protocol: The recombinant GST-Aurora A (residues S123-S401) containing kinase domain were expressed in Sf9 insect cells. The kinase assay were carried out in 96-well plates with tested compound in a final volume of 50 μl reaction at 37° C. for 90 minutes with following components: 50 mM Tris-HCl pH 7.4, 10 mM NaCl, 10 mM MgCl2, 0.01% BSA, 5 μM ATP, 1 mM DTT and 15 μM tetra(LRRASLG) peptide, and 150 ng recombinant Aurora A. Following incubation, 50 μl Kinase-Glo Plus Reagent (Promega, Madison, Wis., USA) was added to each well and the mixture was incubated at 25° C. for 20 min. A 70-μL aliquot of each reaction mixture was transferred to a black microtiter plate and the luminescence was measured on Wallac Vector 1420 multilabel counter (PerkinElmer, Shelton, Conn., USA).

Where [5] appears, read: VEGFR1 assay, bound in nM, read-out: IC50.
Setting [6] is: VEGFR1 assay, bound in μM, read-out: IC50.
The mark [7] stands for this setting: VEGFR2 assay, bound in μM, read-out: IC50.
[8] abbreviates: VEGFR2 assay, ranges in nM, read-out: IC50.

On to `CC(C)(C)c1cc(NC(=O)Nc2ccc(-c3cc(NC(=O)c4ccc(OCCN5CCOCC5)cc4)[nH]n3)cc2)no1` [Compound 44, N1-(3-4-[([5-(tert-butyl)-3-isoxazolyl]aminocarbonyl)amino]phenyl-1H-5-pyrazolyl)-4-(2-morpholinoethoxy)benzamide], for which the IC50 is less than 100 nM in experiment [1] (setting [5]); less than 1000 nM in experiment [1] (setting [6]); 1 to 20 nM in experiment [2]; less than 1 µM in experiment [3] (setting [7]); 0.001 to 0.055 µM in experiment [3] (setting [8]); less than 200 nM in experiment [4] (bound in nM). The IC50 in experiment [4] (bound in μM) was less than 1000 nM.

With `Cc1cc(NC(=O)Nc2ccc(-c3cc(NC(=O)c4ccc(N5CCN(C)CC5)cc4)[nH]n3)cc2)no1` [Compound 32, N1-3-[4-([(5-methyl-3-isoxazolyl)amino]carbonylamino)phenyl]-1H-5-pyrazolyl-4-(4-methylpiperazino)benzamide], the IC50 in experiment [1] (setting [6]) was less than 1000 nM; in experiment [2], 1 to 20 nM; in experiment [3] (setting [7]), less than 1 µM; in experiment [3] (setting [8]), 0.001 to 0.055 µM; in experiment [4] (bound in nM), less than 200 nM; in experiment [4] (bound in μM) it was less than 1000 nM.

Regarding `Cc1cc(NC(=O)Nc2ccc(-c3cc(NC(=O)c4ccc(N5CCN(C)CC5)cc4)[nH]n3)cc2C)no1` [Compound 47, N1-3-[3-methyl-4-([(5-methyl-3-isoxazolyl)amino]carbonylamino)phenyl]-1H-5-pyrazolyl-4-(4-methylpiperazino)benzamide], the IC50 in experiment [2] is 1 to 20 nM; in experiment [3] (setting [7]) it was less than 1 µM; in experiment [3] (setting [8]), 0.001 to 0.055 µM; in experiment [4] (bound in μM), less than 1000 nM.

Regarding `CN1CCN(c2ccc(C(=O)Nc3cc(-c4ccc(NC(=O)Nc5ccccc5)cc4)n[nH]3)cc2)CC1` [Compound 30, N1-(3-4-[(anilinocarbonyl)amino]phenyl-1H-5-pyrazolyl)-4-(4-methylpiperazino)benzamide], the IC50 is 1 to 20 nM in experiment [2], less than 1 µM in experiment [3] (setting [7]), 0.001 to 0.055 µM in experiment [3] (setting [8]) and less than 1000 nM in experiment [4] (bound in μM).

Turning to `Cc1nc(Nc2cc(-c3cccc(NS(=O)(=O)c4ccccc4)c3)n[nH]2)cc(N2CCN(C)CC2)n1` [Compound 85, N1-[3-(5-[2-methyl-6-(4-methylpiperazino)-4-pyrimidinyl]amino-1H-3-pyrazolyl)phenyl]-1-benzenesulfonamide], the IC50 in experiment [1] (setting [6]) was less than 1000 nM; in experiment [2], 1 to 20 nM; in experiment [3] (setting [7]) it was less than 1 µM; in experiment [3] (setting [8]), 0.055 to 0.4 µM; in experiment [4] (bound in μM) it was less than 1000 nM.

`Cc1cccc(S(=O)(=O)Nc2cccc(-c3cc(NC(=O)c4ccc(N5CCN(C)CC5)cc4)[nH]n3)c2)c1` [Compound 15, N1-[3-(3-[(3-methylphenyl)sulfonyl]aminophenyl)-1H-5-pyrazolyl]-4-(4-methylpiperazino)benzamide]: the IC50 was less than 1000 nM in experiment [1] (setting [6]); 1 to 20 nM in experiment [2]; less than 1 µM in experiment [3] (setting [7]); 0.055 to 0.4 µM in experiment [3] (setting [8]); less than 1000 nM in experiment [4] (bound in μM).

On to `Cc1nc(Nc2ncc(-c3ccc(NC(=O)Nc4cc(C)on4)cc3)s2)cc(N2CCN(C)CC2)n1` [Compound 103, N-(5-methyl-3-isoxazolyl)-N′-[4-(2-[2-methyl-6-(4-methylpiperazino)-4-pyrimidinyl]amino-1,3-thiazol-5-yl)phenyl]urea], for which the IC50 in experiment [4] (bound in μM) was less than 1000 nM.

`CCN1CCN(c2cc(Nc3ncc(-c4ccc(N)cc4)s3)nc(C)n2)CC1` [Compound 102]: the IC50 in experiment [2] is 1 to 20 nM; in experiment [4] (bound in nM), less than 200 nM.

For the molecule `CN1CCN(Cc2ccc(C(=O)Nc3cc(-c4ccc(NC(=O)Nc5cc(C(C)(C)C)on5)cc4)n[nH]3)cc2)CC1` [Compound 43, N1-(3-4-[([5-(tert-butyl)-3-isoxazolyl]aminocarbonyl)amino]phenyl-1H-5-pyrazolyl)-4-[(4-methylpiperazino)methyl]benzamide], the IC50 was less than 100 nM in experiment [1] (setting [5]); less than 1000 nM in experiment [1] (setting [6]); 1 to 20 nM in experiment [2]; less than 1 µM in experiment [3] (setting [7]); 0.001 to 0.055 µM in experiment [3] (setting [8]); less than 200 nM in experiment [4] (bound in nM). In addition, the half-inhibitory concentration (IC50) in experiment [4] (bound in μM) is less than 1000 nM.

In the case of `Cc1cc(NC(=O)Nc2ccc(-c3cnc(NC(=O)c4ccc(OCCN5CCOCC5)cc4)s3)cc2)no1` [Compound 120, N1-5-[4-([(5-methyl-3-isoxazolyl)amino]carbonylamino)phenyl]-1,3-thiazol-2-yl-4-(2-morpholinoethoxy)benzamide], in experiment [4] (bound in nM), the IC50 was less than 200 nM.

Take `O=C(NCc1ccc(-c2cc(NC(=O)c3ccc(OCCN4CCOCC4)cc3)[nH]n2)cc1)Nc1ccccc1` [Compound 61a, N1-[3-(4-[(anilinocarbonyl)amino]methylphenyl)-1H-5-pyrazolyl]-4-(2-morpholinoethoxy)benzamide]: the IC50 in experiment [2] is 1 to 20 nM; in experiment [3] (setting [7]) it was less than 1 µM; in experiment [3] (setting [8]) it was 0.001 to 0.055 µM; in experiment [4] (bound in μM), less than 1000 nM.

Take `CN1CCN(c2ccc(C(=O)Nc3cc(-c4ccc(NC(=O)Oc5ccccc5)cc4)n[nH]3)cc2)CC1` [Compound 68, Phenyl-N-[4-(5-[4-(4-methylpiperazino)benzoyl]amino-1H-3-pyrazolyl)phenyl]carbamate]: the IC50 in experiment [1] (IC50, VEGFR1 assay, bound in μM) was less than 1000 nM; in experiment [2] it was 1 to 20 nM; in experiment [3] (IC50, VEGFR2 assay, bound in μM) it was less than 1 µM; in experiment [3] (IC50, VEGFR2 assay, ranges in nM), 0.055 to 0.4 µM.

In the case of `CN1CCN(c2ccc(C(=O)Nc3cc(-c4ccc(NC(=O)c5ccccc5)cc4)n[nH]3)cc2)CC1` [Compound 10, N1-3-[4-(benzoylamino)phenyl]-1H-5-pyrazolyl-4-(4-methylpiperazino)benzamide], the IC50 in experiment [4] (bound in nM) was less than 200 nM; in experiment [4] (bound in μM), less than 1000 nM.
